Experimental findings from DBAASP are described below.

Values after ≈ are worked out from the molar mass of the structure shown. A value given as a limit tells only on which side of the number the result lay.

Test systems include Botrytis cinerea 101; Penicillium roqueforti; Saccharomyces cerevisiae; Enterococcus faecium; Acinetobacter baumannii; Escherichia coli Ec513; Candida krusei ATCC 6258.
Holding throughout (experiment): ≥ marks a high value that may be exact or a test limit, other limits are often not marked, values filed in µg/mL are converted to µM
Experiment [1] concerns Candida albicans ATCC 10231.
Experiment [2] deals with Corynebacterium glutamicum ATCC 13032.
In experiment [3] the test system is Escherichia coli ATCC 25922.
Experiment [4] concerns Staphylococcus aureus ATCC 9144.
For experiment [5], the system named is Vibrio anguillarum FT1801.
Experiment [6] relates to Enterococcus faecalis ATCC 29212.
The subject of experiment [7] is Staphylococcus aureus ATCC 25923.
The subject of experiment [8] is Staphylococcus aureus K35.
The subject of experiment [9] is Staphylococcus aureus K52.
Experiment [10] concerns Acinetobacter baumannii Ab1408.
Experiment [11] deals with Acinetobacter baumannii Ab5753.
Experiment [12] has as its system Acinetobacter baumannii Ab5755.
In experiment [13] the test system is Acinetobacter baumannii NM109.
For experiment [14], the system named is Acinetobacter baumannii NM124.
Experiment [15] concerns Acinetobacter baumannii NM35.
The subject of experiment [16] is Acinetobacter baumannii NM75.
Experiment [17] has as its system Acinetobacter baumannii NM8.
Experiment [18] relates to Candida albicans ATCC 90028.
The subject of experiment [19] is Escherichia coli ATCC 25726.
The test system of experiment [20] is Pseudomonas aeruginosa Pa1409.
In experiment [21] the test system is Pseudomonas aeruginosa Pa4216.
Experiment [22] deals with Staphylococcus aureus Sa1390.
The test system of experiment [23] is Candida parapsilosis ATCC 22019.
Experiment [24] deals with Cryptococcus neoformans ATCC 90012.
Experiment [25] deals with Pseudomonas aeruginosa ATCC 27853.
Experiment [26] relates to Erwinia amylovora PMV 6076.
The subject of experiment [27] is Pseudomonas syringae pv. syringae EPS 94.
Experiment [28] concerns Xanthomonas campestris pv. Vesicatoria 2133-2.
Experiment [29] concerns Bacillus subtilis KCTC 1918.
In experiment [30] the test system is Candida albicans KCTC 7270.
The subject of experiment [31] is Escherichia coli KCTC 1682.
The subject of experiment [32] is Pseudomonas aeruginosa KCTC 1637.
Experiment [33] relates to Saccharomyces cerevisiae KCTC 7296.
Experiment [34] relates to Salmonella typhimurium KCTC 1926.
Experiment [35] relates to Staphylococcus aureus KCTC 1621.
Experiment [36] concerns Staphylococcus epidermidis KCTC 1917.
Experiment [37] relates to Trichosporon beigelii KCTC 7707.

As usually defined, the MIC is the lowest concentration that inhibits growth of the organism. Low readings indicate inhibition by little substance, high ones a need for much substance. Turning to `CC(C)C[C@H](NC(=O)[C@H](C)NC(=O)[C@H](Cc1cnc[nH]1)NC(=O)[C@H](C)NC(=O)[C@H](C)NC(=O)[C@H](C)NC(=O)[C@H](CS)NC(=O)[C@H](C)NC(=O)CNC(=O)[C@H](CCCN=C(N)N)NC(=O)[C@H](CC(C)C)NC(=O)[C@@H](N)CC(=O)O)C(=O)O` [DLRGACAAAHAL], the MIC with Botrytis cinerea 101 was no less than 100 µM; in [1], greater than 100 µM; in [2], no less than 100 µM; in [3] it was greater than 100 µM; in the experiment on Penicillium roqueforti, no less than 100 µM; against Saccharomyces cerevisiae it was no less than 100 µM. For the same molecule, the MIC in [4] and in [5] was no less than 100 µM each time.
Take `CC(C)C[C@H](NC(=O)[C@H](C)NC(=O)CNC(=O)[C@H](CO)NC(=O)[C@H](CC(C)C)NC(=O)[C@@H](NC(=O)[C@H](CCCN=C(N)N)NC(=O)CNC(=O)[C@H](C)NC(=O)[C@H](CC(C)C)NC(=O)[C@@H]1CCCN1C(=O)[C@H](CC(C)C)NC(=O)[C@@H](N)Cc1ccccc1)C(C)C)C(N)=O` [FLPLAGRVLSGAL]: the minimum inhibitory concentration (MIC) in [6] was greater than 168 µM; against Enterococcus faecium, no less than 99.8 µM; in experiment [7], greater than 168 µM; in [8], no less than 99.8 µM; in experiment [9] it was no less than 99.8 µM.
As to `CC[C@H](C)[C@H](NC(=O)CN)C(=O)N[C@@H](Cc1c[nH]c2ccccc12)C(=O)N[C@@H](CCCCN)C(=O)N[C@H](C(=O)N[C@H](C(=O)N[C@@H](CCCCN)C(=O)N[C@@H](CO)C(=O)N[C@@H](CCSC)C(=O)NCC(=O)N[C@@H](CCCCN)C(=O)N[C@H](C(=O)N[C@@H](Cc1ccccc1)C(=O)N[C@@H](C)C(=O)NCC(=O)N[C@@H](CCCCN)C(=O)N[C@H](C(=O)N[C@@H](CC(C)C)C(=O)N[C@@H](CCC(N)=O)C(=O)N[C@@H](CC(N)=O)C(=O)N[C@@H](CC(C)C)C(N)=O)[C@@H](C)CC)C(C)C)[C@@H](C)CC)[C@@H](C)O` [GIWKTIKSMGKVFAGKILQNL], the minimal inhibitory concentration (MIC) amounted to 6.86 µM (≈ 16 µg/mL) in experiment [10]; 3.43 µM (≈ 8 µg/mL) in experiment [11]; 1.71 µM (≈ 4 µg/mL) in experiment [12]; 1.5 µM (≈ 3.5 µg/mL) in experiment [13]; 1.5 µM (≈ 3.5 µg/mL) in experiment [14]; 3 µM (≈ 7 µg/mL) in experiment [15]. In addition, the minimum inhibitory concentration (MIC) is 3 µM (≈ 7 µg/mL) in [16]; 3 µM (≈ 7 µg/mL) in experiment [17]; 6.25 µM (≈ 14.6 µg/mL) in the experiment with Acinetobacter baumannii; 6 µM (≈ 14 µg/mL) in [18]; 6.25 µM (≈ 14.6 µg/mL) in experiment [19]; 3.43 µM (≈ 8 µg/mL) in the experiment on Escherichia coli Ec513. Further, the MIC in [20] was determined as 13.7 µM (≈ 32 µg/mL); in [21], 13.7 µM (≈ 32 µg/mL); in experiment [7] it was 12.5 µM (≈ 29.1 µg/mL); in experiment [22], 6.86 µM (≈ 16 µg/mL).
For `CC[C@H](C)[C@H](NC(=O)[C@H](Cc1ccccc1)NC(=O)[C@H](CC(N)=O)NC(=O)[C@H](CCCCN)NC(=O)[C@H](C)NC(=O)[C@@H](NC(=O)[C@H](CC(N)=O)NC(=O)[C@H](Cc1ccccc1)NC(=O)[C@H](C)NC(=O)[C@H](C)NC(=O)[C@H](CCCCN)NC(=O)CNC(=O)[C@H](CCCCN)NC(=O)[C@H](CCCCN)NC(=O)[C@H](CCCCN)NC(=O)[C@H](C)NC(=O)[C@@H](NC(=O)[C@H](CC(=O)O)NC(=O)[C@H](CC(C)C)NC(=O)[C@H](Cc1c[nH]c2ccccc12)NC(=O)CN)C(C)C)C(C)C)C(N)=O` [GWLDVAKKKGKAAFNVAKNFI], the MIC turned out to be 16 µM (≈ 36.9 µg/mL) in experiment [18]; 31 µM (≈ 71.4 µg/mL) against Candida krusei ATCC 6258; 31 µM (≈ 71.4 µg/mL) in [23]; 31 µM (≈ 71.4 µg/mL) in experiment [24]; 8 µM (≈ 18.4 µg/mL) in experiment [3]; 32 µM (≈ 73.8 µg/mL) in experiment [25].
`CC[C@H](C)[C@H](NC(=O)[C@H](CCCCN)NC(=O)[C@H](CCCCN)NC(=O)[C@H](Cc1ccccc1)NC(=O)[C@H](CC(C)C)NC(=O)[C@H](CCCCN)NC(=O)[C@@H](N)CCCCN)C(=O)N[C@@H](CC(C)C)C(=O)N[C@@H](CCCCN)C(=O)N[C@@H](Cc1ccc(O)cc1)C(=O)N[C@@H](CC(C)C)C(=O)N[C@@H](CCCCN)C(=O)N[C@@H](CC(=O)O)C(=O)N[C@@H](CCC(=O)O)C(=O)N[C@@H](CC(C)C)C(=O)O` [KKLFKKILKYLKDEL]: the values for the minimal inhibitory concentration (MIC) in [26], in experiment [27] and in [28] were 3.54 µM (≈ 6.74 µg/mL), 3.54 µM (≈ 6.74 µg/mL) and 1.77 µM (≈ 3.37 µg/mL), respectively.
With `CC[C@H](C)[C@H](NC(=O)[C@H](CCCCN)NC(=O)[C@H](CO)NC(=O)[C@H](Cc1ccccc1)NC(=O)[C@H](CC(C)C)NC(=O)[C@H](CCCCN)NC(=O)[C@H](CCC(=O)O)NC(=O)[C@H](CC(C)C)NC(=O)[C@H](CCCN=C(N)N)NC(=O)[C@H](CCCCN)NC(=O)[C@H](Cc1ccccc1)NC(=O)[C@H](Cc1c[nH]c2ccccc12)NC(=O)[C@@H](N)CCCCN)C(N)=O` [KWFKRLEKLFSKI], the MIC was found to be 1.56 µM (≈ 2.69 µg/mL) in experiment [29]; 17.7 µM (≈ 30.4 µg/mL) in experiment [30]; 3.12 µM (≈ 5.38 µg/mL) in experiment [31]; 1.56 µM (≈ 2.69 µg/mL) in experiment [32]; 6.25 µM (≈ 10.8 µg/mL) in [33]; 0.78 µM (≈ 1.34 µg/mL) in experiment [34]. Moreover, the MIC in experiment [35] came out at 1.56 µM (≈ 2.69 µg/mL); in experiment [36], 3.12 µM (≈ 5.38 µg/mL); in experiment [37], 1.56 µM (≈ 2.69 µg/mL).
